Source: BindingDB's records for patent US20240002391 (Biosplice Therapeutics, 2024)

biological target: Dual specificity tyrosine-phosphorylation-regulated kinase 1A (Homo sapiens, UniProt Q13627); test: DYRK1A kinase assay
Method: The mixture was allowed to incubate with the representative compounds for one hour at room temperature. All reactions were performed in duplicate. Unphosphorylated ( 0% Control ) and phosphorylated ( 100% control ) forms of Ser/Thr 18 served as control reactions. Additionally, an 11-point dose-response curve of Staurosporine (luM top) was run to serve as a positive compound control. After incubation, Development Reagent A was diluted in Development Buffer then added to the reaction and allowed to further incubate for one hour at room temperature.

EC50 [nM] | Compound
2.4 | COc1nc(N[C@H]2CC[C@](C)(O)CC2)nn2cc(F)c(-c3ccc4nnn(C)c4c3)c12 [US20240002391, Compound 629]
4.5 | COc1nc(N[C@H]2CC[C@@](C)(O)CC2)nn2ccc(-c3ccc4nnn(CCF)c4c3)c12 [US20240002391, Compound 658]
3.2 | COc1nc(N[C@H]2C[C@](C)(O)C2)nn2ccc(-c3ccc4nccn4c3)c12 [US20240002391, Compound 44]
18.8 | COc1nc(N[C@H]2C[C@@](C)(N)C2)nn2ccc(-c3ccc4ncnn4c3)c12 [US20240002391, Compound 189]
0.7 | COc1nc(N[C@H]2C[C@]3(CCN3CC(F)F)C2)nn2ccc(-c3ccc4nccnc4c3)c12 [US20240002391, Compound 1099]
24.5 | Cn1nnc2ccc(-c3ccn4nc(N[C@H]5CC[C@](C)(O)CC5)nc(OC5COC5)c34)cc21 [US20240002391, Compound 631]
1.3 | COc1nc(N[C@H]2C[C@@](C)(O)C2)nn2ccc(-c3ccc4nccn4c3)c12 [US20240002391, Compound 43]
0.9 | COc1nc(N[C@H]2CC[C@](C)(O)CC2)nn2ccc(-c3ccc4nnn(CCF)c4c3)c12 [US20240002391, Compound 659]
1.3 | CCn1nnc2ccc(-c3ccn4nc(N[C@H]5CC[C@](C)(O)CC5)nc(OC)c34)cc21 [US20240002391, Compound 639]
0.9 | COc1nc(N[C@H]2C[C@@](C)(NC(=O)C3(C#N)CC3)C2)nn2ccc(-c3ccc4nnn(C)c4c3)c12 [US20240002391, Compound 625]
1.3 | COc1nc(N[C@H]2C[C@@](C)(NC(C)=O)C2)nn2ccc(-c3ccc4nnn(CCF)c4c3)c12 [US20240002391, Compound 653]
